These results are taken from PMC5697638, “Identification of a Potent Phosphoinositide 3‐Kinase Pan Inhibitor Displaying a Strategic Carboxylic Acid Group and Development of Its Prodrugs” (Chemmedchem, 2017).

By IC50 is commonly meant the concentration needed to halve the response being measured. Low values mean inhibition by little substance, high ones a need for much substance.

One experiment has as its target T1, hPI3Kδ (PIK3CD/PIK3R1) (Homo sapiens, UniProt O00329).
T1 construct: purchased ProQinase, Germany 1162–1165‐1
Nature of the experiment: lipid kinase assay (ADP-Glo), PI3Kδ. Format: biochemical. The protocol:
In vitro selection, lipid kinase assay: To determine the inhibitory activity of the new molecular entities on PI3K enzyme, a lipid kinase assay was performed: recombinant proteins (30 ng), human PI3Kα (PIK3CA/PIK3R1, #1161‐1165‐1 ProQinase–Germany), hPI3Kβ (PIK3CB wt/PIK3R1, #1168‐1165‐1 ProQinase, Germany), hPI3Kγ (PIK3CG, #1163‐0000‐1 ProQinase, Germany), hPI3Kδ (PIK3CD/PIK3R1, #1162–1165‐1 ProQinase, Germany), hPI3K‐C2α (PIK3C2A, #14‐906 Merck Millipore_Merck KGaA, Germany), hPI3K‐C2β (PIK3C2B, #14‐907 Merck Millipore_Merck KGaA, Germany), hPI3K‐c2γ (PIK3C2G, #1207‐0000‐1 ProQinase, Germany), and hVps34 (PIK3C3, #1160‐0000‐1 ProQinase, Germany), were incubated in kinase buffer {12.5 μL; 20 mM Tris‐HCl pH 7.5, 10 mM MgCl2, 10 μM ATP, 0.05 mg mL^−1 BSA, 0.5 mM EDTA, 5 mM HEPES pH 7.5, for PI3Kα,PI3Kβ, PI3Kγ, PI3Kδ, PI3KC‐2α, and PI3KC‐2γ; 15 mM MnCl2, 5 mM EGTA, 100 μM ATP, 50 mM HEPES pH 7.5, 100 mM NaCl, and 0.03 % CHAPS for PI3K‐C2β and VPS34 {BSA=bovine serum albumin; EDTA=ethylenediaminetetraacetic acid; HEPES=4‐(2‐hydroxyethyl)‐1‐piperazineethanesulfonic acid; EGTA=ethylene glycol‐bis(2‐aminoethylether)‐N,N,N′,N′‐tetraacetic acid; CHAPS=3‐[(3‐cholamidopropyl)dimethylammonio]‐1‐propanesulfonate}. In the reaction, the ATP concentration used for different PI3Ks was defined on the basis of the Michaelis–Menten kinetics of each enzyme, provided by the supplier. Reaction was performed in presence of 0.5 mg mL^−1 lipid micelles (1:1 phosphatidylinositol/phosphatidylserine) and in the absence (DMSO alone) or presence of increasing concentrations of each compound (from 0.1 nM to 30 μM). The mixture was kept at room temperature (RT) for 30 min for PI3Kα, PI3Kβ, PI3Kγ, PI3Kδ, PI3KC‐2α, and PI3KC‐2γ and for 1 h for PI3K‐C2β and PI3K‐C3. The amount of ADP produced in the reaction was measured by using the ADP‐Glo Kinase Assay kit from Promega (#V9102) and a luminescence reader (Glomax multi detection system, Promega, model number 9301‐010).
The residual PI3K lipid kinase activity in the presence of each molecule at different concentrations was related to the control, intended as the recombinant protein in the presence of DMSO alone and was expressed as a percentage. To derive the IC50 value, all data (% of lipid kinase activity) were plotted on a dose–response curve (Graph Pad software), and the IC50 was calculated by using nonlinear regression fit (equation [log agonist] versus response).
On the technique in general: ADP-Glo first removes unused ATP, then detects ADP through luciferase.

Another experiment deals with PC3 cells. Nature of the experiment: analysis of apoptosis, Annexin V staining. The following applies: 10 μM, 48 h. Format: cell-based. On the procedure: Analysis of apoptosis: For Annexin V staining of apoptotic cells, PC3 cells were seeded at 4×10^5 cells per 6 cm dish in triplicate. Cells were incubated 48 h in the presence or absence of 10 μM 64 and were then detached with 0.1 % trypsin–EDTA, resuspended in Annexin buffer (10 mM HEPES, pH 7.4, 140 mM NaCl, 2.5 mM CaCl2), and stained for Annexin V (FITC Annexin V #640906, BioLegend, USA). Samples were analyzed by using a FACS‐Calibur flow cytometer (Becton Dickinson Immunocytometry Systems, San Jose, USA).

T1 sequence (O00329 whole entry): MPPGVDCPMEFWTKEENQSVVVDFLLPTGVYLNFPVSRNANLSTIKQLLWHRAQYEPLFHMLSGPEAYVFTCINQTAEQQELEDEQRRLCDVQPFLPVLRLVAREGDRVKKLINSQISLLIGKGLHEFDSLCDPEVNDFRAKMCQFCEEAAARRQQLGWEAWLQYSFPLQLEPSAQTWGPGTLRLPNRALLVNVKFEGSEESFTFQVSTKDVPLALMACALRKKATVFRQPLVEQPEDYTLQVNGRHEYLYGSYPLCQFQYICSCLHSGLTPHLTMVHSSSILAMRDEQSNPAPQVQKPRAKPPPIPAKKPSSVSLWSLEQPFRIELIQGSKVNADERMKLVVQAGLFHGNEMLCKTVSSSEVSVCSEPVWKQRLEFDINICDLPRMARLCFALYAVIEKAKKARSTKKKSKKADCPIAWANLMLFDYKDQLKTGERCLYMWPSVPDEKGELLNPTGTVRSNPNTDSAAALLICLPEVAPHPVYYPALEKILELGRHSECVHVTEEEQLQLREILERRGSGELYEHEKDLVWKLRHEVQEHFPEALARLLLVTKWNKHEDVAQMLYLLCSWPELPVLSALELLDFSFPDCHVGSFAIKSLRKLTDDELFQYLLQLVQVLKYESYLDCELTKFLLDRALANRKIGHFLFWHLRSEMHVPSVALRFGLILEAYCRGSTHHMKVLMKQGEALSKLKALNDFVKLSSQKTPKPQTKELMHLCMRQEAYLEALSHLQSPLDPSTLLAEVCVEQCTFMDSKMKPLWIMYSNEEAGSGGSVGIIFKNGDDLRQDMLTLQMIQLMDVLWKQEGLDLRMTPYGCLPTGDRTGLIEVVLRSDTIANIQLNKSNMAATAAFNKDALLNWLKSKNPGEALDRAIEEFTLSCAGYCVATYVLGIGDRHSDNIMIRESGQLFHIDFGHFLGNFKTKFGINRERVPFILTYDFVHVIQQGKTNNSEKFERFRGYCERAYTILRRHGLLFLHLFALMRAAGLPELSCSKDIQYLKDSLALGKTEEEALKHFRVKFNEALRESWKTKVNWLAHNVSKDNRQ
T1 sequence (P27986 whole entry partner): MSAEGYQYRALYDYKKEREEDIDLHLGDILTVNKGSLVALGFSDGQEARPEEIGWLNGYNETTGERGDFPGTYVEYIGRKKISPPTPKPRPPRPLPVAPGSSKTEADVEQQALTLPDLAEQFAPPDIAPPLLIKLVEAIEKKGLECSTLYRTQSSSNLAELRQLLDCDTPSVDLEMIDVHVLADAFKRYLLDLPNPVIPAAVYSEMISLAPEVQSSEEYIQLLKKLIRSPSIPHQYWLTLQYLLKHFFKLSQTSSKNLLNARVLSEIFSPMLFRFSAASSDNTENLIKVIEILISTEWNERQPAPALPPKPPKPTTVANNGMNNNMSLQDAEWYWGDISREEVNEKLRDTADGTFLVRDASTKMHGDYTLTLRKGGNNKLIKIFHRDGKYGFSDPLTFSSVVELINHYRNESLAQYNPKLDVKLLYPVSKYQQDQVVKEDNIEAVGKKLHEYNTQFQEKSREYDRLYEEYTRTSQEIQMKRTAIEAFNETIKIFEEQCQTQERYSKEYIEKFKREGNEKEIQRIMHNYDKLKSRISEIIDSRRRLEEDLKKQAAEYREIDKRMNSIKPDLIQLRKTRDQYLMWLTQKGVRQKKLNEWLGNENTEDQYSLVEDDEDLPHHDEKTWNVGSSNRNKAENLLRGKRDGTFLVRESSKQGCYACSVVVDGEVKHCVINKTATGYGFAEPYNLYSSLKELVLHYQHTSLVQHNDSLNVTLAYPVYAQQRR

`O=C(O)c1cccc(Cn2cc(-c3cccc4c(=O)cc(N5CCOCC5)[nH]c34)nn2)c1` [Compound 37, 3‐{[4‐(2‐Morpholino‐4‐oxo‐1,4‐dihydroquinolin‐8‐yl)‐1H‐1,2,3‐triazol‐1‐yl]methyl}benzoic acid] registered an IC50 at hPI3Kδ (PIK3CD/PIK3R1) (Table 2, mean of at least three determinations, 95 % confidence intervals) of 19 ± 4 nM. Besides, the inhibition at 1 µM at hPI3Kδ (PIK3CD/PIK3R1) (determined at 1 μM, at least triplicate, read-out: Inhibitory activity, PI3K isoform δ) is more than 50%.

Consider `COC(=O)c1cccc(Cn2cc(-c3cccc4c(=O)cc(N5CCOCC5)[nH]c34)nn2)c1` [Compound 64, Methyl 3‐{[4‐(2‐morpholino‐4‐oxo‐1,4‐dihydroquinolin‐8‐yl)‐1H‐1,2,3‐triazol‐1‐yl]methyl}benzoate], for which the “effect on cell apoptosis” value in the experiment with PC3 cells is recorded as “did not show any effect in inducing cell apoptosis”.
